Among the data in patent publication US20260258050A1, “IMMUNOMODULATOR” (HITGEN INC., priority 2023, published 2026) are IC50 values, retold here.

Structures are written as SMILES.

For experiment [1], the target named is T1, Human IL-17AF (Homo sapiens, UniProt Q16552+Q96PD4).
T1 construct: purchased Sino Biological Inc. CT047-H08H
T1 sequence (Q16552 24-155): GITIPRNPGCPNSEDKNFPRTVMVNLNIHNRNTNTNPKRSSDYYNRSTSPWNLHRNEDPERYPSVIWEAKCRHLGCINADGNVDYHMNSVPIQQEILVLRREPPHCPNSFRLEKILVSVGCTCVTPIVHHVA
T1 sequence (Q96PD4 31-163): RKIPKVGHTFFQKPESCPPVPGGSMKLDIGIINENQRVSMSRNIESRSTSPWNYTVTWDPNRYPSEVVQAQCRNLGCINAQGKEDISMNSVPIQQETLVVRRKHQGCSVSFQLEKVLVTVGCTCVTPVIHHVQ
Nature of the experiment: IL-17AF ELISA (competitive ELISA, IL-17AF/IL-17Ra receptor-ligand binding). Particulars: human IL-17AF coated plate, human IL-17Ra, read-out: IC50, inhibitory activity of compounds on human IL-17AF. The procedure, abridged:
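Inhibitors were first pre-incubated 10 min at 25 °C with plate-bound IL-17AF (coated at 0.625 μg/ml, PBS pH 7.4) before a 30-min exposure to IL-17Ra added from a 100 nM solution. Receptor capture read via anti-Fc HRP, TMB, A450. Residual activity normalized to blank/DMSO wells; IC50 by log(inhibitor)-normalized response, variable slope.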

For experiment [2], the target named is T2, Human IL-17A (Homo sapiens, UniProt Q16552).
T2 sequence (Q16552 20-155 limits assumed): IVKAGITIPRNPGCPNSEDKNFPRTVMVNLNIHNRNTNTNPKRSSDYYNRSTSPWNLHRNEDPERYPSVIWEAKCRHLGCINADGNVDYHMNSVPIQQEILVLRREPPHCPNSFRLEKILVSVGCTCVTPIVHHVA
Nature of the experiment: Inhibition of human IL-17A protein-induced GROα/CXCL1 production in HT-29 cells. It counts as cell-based. Further details: purchased R&D 317-ILB; host or cells: added exogenously to HT-29 cells. Particulars: 30 ng/mL human IL-17A protein, 48 h, GROα in supernatant by ELISA kit, read-out: Inhibitory IC50 of compounds on HT-29 cell GROα/CXCL1. The procedure, abridged:
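Compound dilutions were preincubated 1 h at 37 °C with 30 ng/mL human IL-17A, then added to HT-29 cells (5×10^4/well) for 48 h at 37 °C. GROα in supernatant quantified by ELISA; IC50 for inhibition of its production. Positive control: IL-17A antibody at […].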
In general terms: ELISA stands for enzyme-linked immunosorbent assay.

For the molecule `Cc1[nH]nc2c1-c1cnc(NC(=O)[C@@H](NC(=O)c3conc3C(C)C)C(C3CC3)C3CC3)cc1CN(C1CC1)CC2` [compound 214], the IC50 in experiment [1] and in experiment [2] was at most 100 nM in each case.

`Cc1[nH]nc2c1-c1cnc(NC(=O)[C@@H](NC(=O)c3conc3C3CC3)C(C3CC3)C3CC3)cc1CN(C1CC1)CC2` [compound 215]: the IC50 in experiment [1] and in experiment [2] was at most 100 nM throughout.

Take `CCc1nocc1C(=O)N[C@H](C(=O)Nc1cc2c(cn1)-c1c(n[nH]c1C)CCN(C1CC1)C2)C(C1CC1)C1CC1` [compound 216]: the IC50 is 100 to 500 nM in experiment [1] and at most 100 nM in experiment [2].

For the molecule `CCn1nccc1C(=O)N[C@H](C(=O)Nc1cc2c(cn1)-c1c(n[nH]c1C)CCN(C1CC1)C2)C(C1CC1)C1CC1` [compound 217], the IC50 in experiment [1] and in experiment [2] was at most 100 nM throughout.

Turning to `Cc1[nH]nc2c1-c1cc(F)c(NC(=O)[C@@H](NC(=O)c3ccnn3CCCF)C(C3CC3)C3CC3)cc1CN(C1CC1)CC2` [compound 218], the IC50 in experiment [1] and in experiment [2] was at most 100 nM in each case.

As for `Cc1[nH]nc2c1-c1cc(F)c(NC(=O)[C@@H](NC(=O)/C(F)=C\C(C)C)C(C3CC3)C3CC3)cc1COCC2` [compound 229], the IC50 was 100 to 500 nM in experiment [1] and at most 100 nM in experiment [2].

Take `Cc1[nH]nc2c1-c1cc(F)c(NC(=O)[C@@H](NC(=O)/C(F)=C\C3CC3)C(C3CC3)C3CC3)cc1COCC2` [compound 230]: the IC50 is 100 to 500 nM in experiment [1] and at most 100 nM in experiment [2].

As for `Cc1[nH]nc2c1-c1cnc(NC(=O)[C@@H](NC(=O)c3conc3C(C)C)C(C3CC3)C3CC3)cc1COCC2` [compound 234], the IC50 in experiment [1] and in experiment [2] was 100 to 500 nM throughout.

Turning to `Cc1[nH]nc2c1-c1cnc(NC(=O)[C@@H](NC(=O)c3ccnn3CC(F)(F)F)C(C3CC3)C3CC3)cc1COCC2` [compound 236], the IC50 in experiment [1] and in experiment [2] was 100 to 500 nM in each case.

Turning to `Cc1[nH]nc2c1-c1cnc(NC(=O)[C@@H](NC(=O)c3ccnn3C3CC3)C(C3CC3)C3CC3)cc1COCC2` [compound 237], the IC50 in experiment [1] and in experiment [2] was 100 to 500 nM throughout.

`Cc1[nH]nc2c1-c1cnc(NC(=O)[C@@H](NC(=O)/C(F)=C\C(C)C)C(C3CC3)C3CC3)cc1COCC2` [compound 238]: the IC50 in experiment [1] is 100 to 500 nM; in experiment [2], at most 100 nM.

As to `Cc1[nH]nc2c1-c1cnc(NC(=O)[C@@H](NC(=O)/C(F)=C\C3CC3)C(C3CC3)C3CC3)cc1COCC2` [compound 239], the IC50 is 100 to 500 nM in experiment [1] and at most 100 nM in experiment [2].

As for `CCc1nocc1C(=O)N[C@H](C(=O)Nc1cc2c(cn1)-c1c(n[nH]c1C)CCOC2)C(C1CC1)C1CC1` [compound 240], the IC50 in experiment [1] and in experiment [2] was 100 to 500 nM each time.

For `Cc1[nH]nc2c1-c1cnc(NC(=O)[C@@H](NC(=O)c3conc3C3CC3)C(C3CC3)C3CC3)cc1COCC2` [compound 241], the IC50 in experiment [1] and in experiment [2] was 100 to 500 nM each time.
